Test results taken from ChEMBL document CHEMBL6074628, “Rational design, synthesis and pharmacological characterization of novel aminopeptidase A inhibitors” (Bioorg Med Chem Lett, 2024).
Converted amounts (≈) assume the structure as drawn. Blank lines part the entries; values can stand above or below the compound they belong to.

Legend:
[1] = Inhibition of rabbit kidney aminopeptidase A using GluNA as substrate incubated for 1 hrs by absorbance based assay
Glutamyl aminopeptidase = molecular target: T1, Glutamyl aminopeptidase (Mus musculus, UniProt P16406); experiment: Inhibition of recombinant mouse aminopeptidase A activity
T1 sequence (P16406 whole entry): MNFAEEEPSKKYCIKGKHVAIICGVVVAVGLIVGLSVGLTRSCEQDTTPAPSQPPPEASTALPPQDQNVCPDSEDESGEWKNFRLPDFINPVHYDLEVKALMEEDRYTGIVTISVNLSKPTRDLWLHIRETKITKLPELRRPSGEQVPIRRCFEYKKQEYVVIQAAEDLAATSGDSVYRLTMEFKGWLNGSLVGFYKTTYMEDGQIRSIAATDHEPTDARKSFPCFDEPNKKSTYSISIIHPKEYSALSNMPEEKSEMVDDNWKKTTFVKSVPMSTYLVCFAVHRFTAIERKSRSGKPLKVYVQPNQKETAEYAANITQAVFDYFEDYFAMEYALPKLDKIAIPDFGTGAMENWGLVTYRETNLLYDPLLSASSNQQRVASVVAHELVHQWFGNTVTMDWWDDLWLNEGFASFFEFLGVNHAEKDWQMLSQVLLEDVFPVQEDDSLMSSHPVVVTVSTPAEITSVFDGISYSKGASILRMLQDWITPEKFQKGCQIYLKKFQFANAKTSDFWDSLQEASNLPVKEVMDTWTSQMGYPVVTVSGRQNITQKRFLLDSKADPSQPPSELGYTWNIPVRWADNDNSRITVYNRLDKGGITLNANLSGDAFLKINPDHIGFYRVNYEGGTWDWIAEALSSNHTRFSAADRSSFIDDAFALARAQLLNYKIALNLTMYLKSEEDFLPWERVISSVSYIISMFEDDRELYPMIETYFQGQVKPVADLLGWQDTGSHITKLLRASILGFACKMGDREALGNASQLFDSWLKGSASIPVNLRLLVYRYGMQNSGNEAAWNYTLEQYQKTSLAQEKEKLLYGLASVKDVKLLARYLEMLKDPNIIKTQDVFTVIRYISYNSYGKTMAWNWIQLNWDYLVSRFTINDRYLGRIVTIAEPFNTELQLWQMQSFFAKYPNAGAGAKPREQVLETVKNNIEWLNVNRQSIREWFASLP

Aminopeptidase N = Aminopeptidase N (Homo sapiens, UniProt P15144); experiment: Inhibition of APN (unknown origin)
Chain of Aminopeptidase N (P15144 whole entry): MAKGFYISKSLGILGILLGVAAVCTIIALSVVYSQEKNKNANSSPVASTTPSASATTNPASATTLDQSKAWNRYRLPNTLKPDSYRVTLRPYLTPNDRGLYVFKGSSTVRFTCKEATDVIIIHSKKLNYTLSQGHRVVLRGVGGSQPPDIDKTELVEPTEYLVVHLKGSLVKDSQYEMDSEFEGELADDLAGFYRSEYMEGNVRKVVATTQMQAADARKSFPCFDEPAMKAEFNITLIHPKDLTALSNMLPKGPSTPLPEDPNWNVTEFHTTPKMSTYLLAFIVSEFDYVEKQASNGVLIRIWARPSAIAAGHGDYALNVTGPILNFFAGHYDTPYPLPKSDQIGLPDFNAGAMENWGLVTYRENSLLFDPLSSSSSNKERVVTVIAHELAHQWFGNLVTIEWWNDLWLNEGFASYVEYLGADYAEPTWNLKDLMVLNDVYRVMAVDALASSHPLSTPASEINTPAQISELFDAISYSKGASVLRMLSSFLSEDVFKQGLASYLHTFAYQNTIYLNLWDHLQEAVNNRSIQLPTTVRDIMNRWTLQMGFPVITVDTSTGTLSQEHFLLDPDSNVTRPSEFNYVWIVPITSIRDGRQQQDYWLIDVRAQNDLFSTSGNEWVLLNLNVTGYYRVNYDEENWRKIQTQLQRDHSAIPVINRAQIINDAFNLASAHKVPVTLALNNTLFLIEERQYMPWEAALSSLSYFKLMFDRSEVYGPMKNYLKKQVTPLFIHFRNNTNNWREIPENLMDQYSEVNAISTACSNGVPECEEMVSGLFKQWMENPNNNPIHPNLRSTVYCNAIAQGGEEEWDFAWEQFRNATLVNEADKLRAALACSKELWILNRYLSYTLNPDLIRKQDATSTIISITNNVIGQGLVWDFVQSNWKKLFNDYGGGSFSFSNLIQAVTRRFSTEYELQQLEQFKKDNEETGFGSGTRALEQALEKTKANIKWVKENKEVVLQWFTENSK

[2] = Apparent permeability in human Caco-2 cells
[3] = Solubility of compound in phosphate buffer at pH 7.4
Cytochrome P450 1A2 = molecular target: T2, Cytochrome P450 1A2 (Homo sapiens, UniProt P05177); experiment: Inhibition of CYP1A2 (unknown origin)
T2 sequence (P05177 whole entry): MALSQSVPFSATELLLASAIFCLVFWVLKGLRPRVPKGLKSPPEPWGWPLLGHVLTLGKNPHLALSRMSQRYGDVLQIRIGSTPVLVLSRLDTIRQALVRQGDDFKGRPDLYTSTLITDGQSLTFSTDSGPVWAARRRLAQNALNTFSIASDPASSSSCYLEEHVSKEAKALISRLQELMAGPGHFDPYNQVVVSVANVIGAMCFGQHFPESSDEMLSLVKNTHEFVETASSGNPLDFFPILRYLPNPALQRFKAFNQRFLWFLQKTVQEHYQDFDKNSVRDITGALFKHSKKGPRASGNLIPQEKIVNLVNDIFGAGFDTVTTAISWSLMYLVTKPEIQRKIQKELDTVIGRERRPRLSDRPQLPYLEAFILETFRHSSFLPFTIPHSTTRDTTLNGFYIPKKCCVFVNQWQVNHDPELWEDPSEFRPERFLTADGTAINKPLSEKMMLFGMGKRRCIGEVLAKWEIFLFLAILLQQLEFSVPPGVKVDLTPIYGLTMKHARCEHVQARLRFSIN

Cytochrome P450 2B6 = molecular target: T3, Cytochrome P450 2B6 (Homo sapiens, UniProt P20813); experiment: Inhibition of CYP2B6 (unknown origin)
T3 sequence (P20813 whole entry): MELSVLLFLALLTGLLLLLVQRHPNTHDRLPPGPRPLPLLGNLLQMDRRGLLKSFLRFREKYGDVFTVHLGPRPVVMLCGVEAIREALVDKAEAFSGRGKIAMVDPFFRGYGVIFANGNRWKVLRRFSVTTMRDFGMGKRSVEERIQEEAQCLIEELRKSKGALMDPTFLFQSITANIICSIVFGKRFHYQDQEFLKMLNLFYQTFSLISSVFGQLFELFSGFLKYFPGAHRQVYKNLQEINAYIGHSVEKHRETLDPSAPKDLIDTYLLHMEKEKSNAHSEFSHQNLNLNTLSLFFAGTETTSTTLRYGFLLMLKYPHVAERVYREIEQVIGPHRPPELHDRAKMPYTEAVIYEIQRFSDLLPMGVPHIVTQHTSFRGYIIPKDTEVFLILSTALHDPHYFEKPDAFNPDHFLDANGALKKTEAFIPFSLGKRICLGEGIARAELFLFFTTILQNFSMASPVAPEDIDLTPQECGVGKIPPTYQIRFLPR

Cytochrome P450 2C9 = Cytochrome P450 2C9 (Homo sapiens, UniProt P11712); experiment: Inhibition of CYP2C9 (unknown origin)
Chain of Cytochrome P450 2C9 (P11712 whole entry): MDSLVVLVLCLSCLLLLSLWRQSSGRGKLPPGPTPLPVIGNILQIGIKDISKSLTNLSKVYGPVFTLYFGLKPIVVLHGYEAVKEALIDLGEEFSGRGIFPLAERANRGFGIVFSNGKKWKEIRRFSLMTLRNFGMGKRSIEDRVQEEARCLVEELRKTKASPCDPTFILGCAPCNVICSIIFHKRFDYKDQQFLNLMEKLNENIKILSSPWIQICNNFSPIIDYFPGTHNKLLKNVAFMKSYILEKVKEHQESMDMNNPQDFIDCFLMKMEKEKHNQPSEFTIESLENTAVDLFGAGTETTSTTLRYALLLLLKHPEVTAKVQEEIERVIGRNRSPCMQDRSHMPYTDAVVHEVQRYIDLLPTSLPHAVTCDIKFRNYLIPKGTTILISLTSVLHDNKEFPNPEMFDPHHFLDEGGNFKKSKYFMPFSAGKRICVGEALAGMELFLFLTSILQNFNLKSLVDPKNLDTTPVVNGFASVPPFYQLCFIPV

Cytochrome P450 2C19 = Cytochrome P450 2C19 (Homo sapiens, UniProt P33261); experiment: Inhibition of CYP2C19 (unknown origin)
Chain of Cytochrome P450 2C19 (P33261 whole entry): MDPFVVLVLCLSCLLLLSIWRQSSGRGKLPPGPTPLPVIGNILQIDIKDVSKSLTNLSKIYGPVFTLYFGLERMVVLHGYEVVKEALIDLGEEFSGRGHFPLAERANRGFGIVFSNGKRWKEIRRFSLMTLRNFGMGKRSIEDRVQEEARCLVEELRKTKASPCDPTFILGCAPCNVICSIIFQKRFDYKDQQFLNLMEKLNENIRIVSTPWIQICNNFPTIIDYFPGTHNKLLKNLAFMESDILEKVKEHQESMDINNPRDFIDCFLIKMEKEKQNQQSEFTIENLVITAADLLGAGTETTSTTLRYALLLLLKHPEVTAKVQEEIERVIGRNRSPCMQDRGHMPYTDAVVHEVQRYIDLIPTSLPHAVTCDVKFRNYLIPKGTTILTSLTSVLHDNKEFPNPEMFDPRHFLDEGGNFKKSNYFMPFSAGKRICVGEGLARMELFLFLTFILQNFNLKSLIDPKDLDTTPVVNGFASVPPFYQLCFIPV

Cytochrome P450 2D6 = Cytochrome P450 2D6 (Homo sapiens, UniProt P10635); experiment: Inhibition of CYP2D6 (unknown origin)
Chain of Cytochrome P450 2D6 (P10635 whole entry): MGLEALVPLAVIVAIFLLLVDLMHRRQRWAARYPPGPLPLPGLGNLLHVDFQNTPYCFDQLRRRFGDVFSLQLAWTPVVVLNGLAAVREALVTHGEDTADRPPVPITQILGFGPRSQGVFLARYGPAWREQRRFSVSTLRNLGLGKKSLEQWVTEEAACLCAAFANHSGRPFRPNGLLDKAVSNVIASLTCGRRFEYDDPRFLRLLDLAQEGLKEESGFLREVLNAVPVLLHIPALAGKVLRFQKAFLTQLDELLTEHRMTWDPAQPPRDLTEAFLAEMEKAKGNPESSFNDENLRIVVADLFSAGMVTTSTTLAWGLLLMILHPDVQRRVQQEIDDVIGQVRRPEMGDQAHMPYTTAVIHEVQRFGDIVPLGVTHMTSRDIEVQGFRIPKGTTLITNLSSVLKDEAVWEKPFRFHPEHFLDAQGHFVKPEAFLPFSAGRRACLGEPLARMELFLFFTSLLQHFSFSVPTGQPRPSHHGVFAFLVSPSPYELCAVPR

Cytochrome P450 3A4 = Cytochrome P450 3A4 (Homo sapiens, UniProt P08684); experiment: Inhibition of CYP3A4 (unknown origin)
Chain of Cytochrome P450 3A4 (P08684 whole entry): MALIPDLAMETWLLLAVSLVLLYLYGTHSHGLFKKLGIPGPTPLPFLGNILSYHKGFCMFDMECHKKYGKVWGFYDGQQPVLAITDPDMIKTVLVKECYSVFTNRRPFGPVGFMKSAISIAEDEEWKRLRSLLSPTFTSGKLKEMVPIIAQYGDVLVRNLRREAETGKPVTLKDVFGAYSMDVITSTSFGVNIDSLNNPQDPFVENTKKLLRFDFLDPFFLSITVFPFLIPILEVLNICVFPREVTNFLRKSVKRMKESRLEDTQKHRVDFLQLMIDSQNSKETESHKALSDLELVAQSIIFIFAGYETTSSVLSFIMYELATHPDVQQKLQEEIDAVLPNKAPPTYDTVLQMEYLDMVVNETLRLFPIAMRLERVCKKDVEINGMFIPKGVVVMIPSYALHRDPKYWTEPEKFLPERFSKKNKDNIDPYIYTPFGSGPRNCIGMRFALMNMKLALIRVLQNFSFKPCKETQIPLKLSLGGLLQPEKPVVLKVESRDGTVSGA

[4] = Stability in human hepatocyte assessed as parent compound remaining measured after 1 hrs; settings: hepatocytes
[5] = Stability in rat hepatocyte assessed as parent compound remaining measured after 1 hrs; settings: hepatocytes
[6] = Half-life in Sprague-Dawley rat at 2 mg/kg, iv; settings: in vivo
[7] = Hepatic extraction ratio in Sprague-Dawley rat at 2 mg/kg, iv; settings: in vivo
[8] = Drug concentration in Sprague-Dawley rat cerebrospinal fluid at 2 mg/kg, iv measured after 5 mins
[9] = Drug concentration in Sprague-Dawley rat cerebrospinal fluid at 2 mg/kg, iv measured after 60 mins
[10] = Drug concentration in Sprague-Dawley rat brain at 2 mg/kg, iv measured after 5 mins
[11] = Drug concentration in Sprague-Dawley rat brain at 2 mg/kg, iv measured after 60 mins
in vivo [12] = settings: mouse, iv, 2 mg/kg
Description: AUC (0 to t) in mouse at 2 mg/kg, iv

in vivo [13] = settings: mouse, po, 20 mg/kg
Description: AUC (0 to t) in mouse at 20 mg/kg, po

in vivo [14] = settings: mouse
in vivo [15] = settings: Sprague-Dawley, rat, iv, 2 mg/kg
Description: Cmax in Sprague-Dawley rat at 2 mg/kg, iv

in vivo [16] = settings: Sprague-Dawley, rat, iv, 2 mg/kg; remark: listed apart in the source
Description: Renal clearance in Sprague-Dawley rat at 2 mg/kg, iv

[17] = Inhibition of APA (unknown origin)

SMILES: N[C@H](CS)CCC(=O)O
Ki [1]: 140 nM

SMILES: COc1cccc(CCP(=O)(O)C(N)CCC(=O)O)c1 (centres undefined)
IC50 (Glutamyl aminopeptidase): 28 nM

SMILES: NC(CCC(=O)O)P(=O)(O)CCc1ccccc1OC1CCCC1 (centres undefined)
IC50 (Glutamyl aminopeptidase): 9 nM

SMILES: COc1c(Cl)cccc1CCP(=O)(O)C(N)CCC(=O)O (centres undefined)
IC50 (Glutamyl aminopeptidase): 54 nM

SMILES: COc1ccc(CCP(=O)(O)C(N)CCC(=O)O)cc1 (centres undefined)
IC50 (Glutamyl aminopeptidase): 24 nM

SMILES: NC(CCC(=O)O)P(=O)(O)CCc1ccccc1OC1CCCCC1 (centres undefined)
IC50 (Glutamyl aminopeptidase): 1 nM

SMILES: NC(CCC(=O)O)P(=O)(O)CCC1CCCCC1 (centres undefined)
IC50 (Glutamyl aminopeptidase): 41 nM

SMILES: NC(CCC(=O)O)P(=O)(O)CCn1ncc2ccccc21 (centres undefined)
IC50 (Glutamyl aminopeptidase): 420 nM

SMILES: NC(CCC(=O)O)P(=O)(O)CCc1cccc(Cl)c1 (centres undefined)
IC50 (Glutamyl aminopeptidase): 61 nM

SMILES: Cc1ccc(CCP(=O)(O)C(N)CCC(=O)O)cc1 (centres undefined)
IC50 (Glutamyl aminopeptidase): 23 nM

SMILES: N[C@@H](CCS(=O)(=O)O)[C@@H](S)CCc1ccccc1
Ki [17]: 30 nM
Ki (Aminopeptidase N): > 10000 nM

SMILES: NC(CCC(=O)O)P(=O)(O)CCc1cccc(Cl)c1Cl (centres undefined)
IC50 (Glutamyl aminopeptidase): 26 nM

SMILES: Cc1cccc(CCP(=O)(O)C(N)CCC(=O)O)c1 (centres undefined)
IC50 (Glutamyl aminopeptidase): 27 nM

SMILES: NC(CCC(=O)O)P(=O)(O)CCc1ccccc1OC(F)(F)F (centres undefined)
IC50 (Glutamyl aminopeptidase): 26 nM

SMILES: NC(CCP(=O)(O)O)P(=O)(O)CCc1ccccc1 (racemic)
IC50 (Glutamyl aminopeptidase): 5400 nM

SMILES: NC(CCS(=O)(=O)O)P(=O)(O)CCc1ccccc1 (racemic)
IC50 (Glutamyl aminopeptidase): 310 nM

SMILES: NC(CCC(=O)O)P(=O)(O)Cc1ccccc1 (racemic)
IC50 (Glutamyl aminopeptidase): 39 nM

Further lines, results first:

IC50 (Glutamyl aminopeptidase): 21 nM
SMILES: NC(CCC(=O)O)P(=O)(O)CCc1ccccc1Cl (centres undefined)

IC50 (Glutamyl aminopeptidase): 660 nM
SMILES: N[C@H](CCC(=O)O)P(=O)(O)CCc1ccccc1

IC50 (Glutamyl aminopeptidase): 42 nM
SMILES: NC(CCC(=O)O)P(=O)(O)CCc1ccccc1-c1ccccc1 (centres undefined)

IC50 (Glutamyl aminopeptidase): 7 nM
SMILES: NC(CCC(=O)O)P(=O)(O)CCc1cccc2ccccc12 (centres undefined)

IC50 (Aminopeptidase N): > 20000 nM
IC50 (Glutamyl aminopeptidase): 4 nM
Papp [2]: 0.5 ×10⁻⁶ cm/s
solubility [3]: 165 µM (≈ 49.7 µg/mL)
IC50 (Cytochrome P450 1A2): > 25000 nM
IC50 (Cytochrome P450 2B6): > 25000 nM
IC50 (Cytochrome P450 2C9): > 25000 nM
IC50 (Cytochrome P450 2C19): > 25000 nM
IC50 (Cytochrome P450 2D6): > 25000 nM
IC50 (Cytochrome P450 3A4): > 25000 nM
remaining at 1 h [4]: 99%
remaining at 1 h [5]: 93%
half-life [6]: ~30 min
hepatic extraction ratio [7]: ~0.45
concentration at 5 min [8]: 281 ng/mL
concentration at 1 h [9]: 115 ng/mL
concentration at 5 min [10]: 50.2 ng/g
concentration at 1 h [11]: 15.6 ng/g
AUC(0-t) (in vivo [12]): 919 ng·h/mL
AUC(0-t) (in vivo [13]): 37.6 ng·h/mL
bioavailability (in vivo [14]): 4.1%
Cmax (in vivo [15]): 4920 ng/mL
CL renal (in vivo [16]): 0.6 mL/min
SMILES: COc1ccccc1CCP(=O)(O)[C@@H](N)CCC(=O)O

IC50 (Glutamyl aminopeptidase): 21 nM
SMILES: NC(CCC(=O)O)P(=O)(O)CCc1ccc2ccccc2c1 (centres undefined)

IC50 (Glutamyl aminopeptidase): 30 nM
SMILES: Cn1cc(CCP(=O)(O)C(N)CCC(=O)O)c2ccccc21 (centres undefined)

IC50 (Glutamyl aminopeptidase): 9 nM
SMILES: COc1ccccc1CCP(=O)(O)C(N)CCC(=O)O (centres undefined)

IC50 (Glutamyl aminopeptidase): 10 nM
SMILES: N[C@@H](CCC(=O)O)P(=O)(O)CCc1ccccc1

IC50 (Glutamyl aminopeptidase): 10 nM
SMILES: NC(CCC(=O)O)P(=O)(O)CCc1ccccc1Oc1ccccc1 (centres undefined)

IC50 (Glutamyl aminopeptidase): 18 nM
SMILES: Cc1ccccc1CCP(=O)(O)C(N)CCC(=O)O (centres undefined)

IC50 (Glutamyl aminopeptidase): 930 nM
SMILES: NC(CCCC(=O)O)P(=O)(O)CCc1ccccc1 (racemic)

IC50 (Glutamyl aminopeptidase): 29 nM
SMILES: NC(CCC(=O)O)P(=O)(O)CCc1ccccc1 (racemic)

IC50 (Glutamyl aminopeptidase): 54 nM
SMILES: NC(CCC(=O)O)P(=O)(O)CCCc1ccccc1 (racemic)
